Assay results as given in article PMC6581923 (Journal of Molecular Neuroscience, 2018).
Entries after “also recorded” stand apart in the source; their conditions may differ. Where two headings read alike, the source gives them in different places.

Tests used:
PAC1 receptor = tested on: PAC1 receptor; set-up: method as in 2 sources, one per row (each row's own in cited_ref): ref Yu et al. [2014] ||| ref Vaudry et al. [2009]; conditions: vs VIP, ref Yu et al. [2014], cited from earlier work
Text: The retinoprotective effects of PACAP are well-documented and have been proven in different injury models, such as excitotoxic, ischemic, UV light-induced, traumatic, diabetic and oxygen-induced injuries (Atlasz et al. [2008], [2011], [2016]; Kvarik et al. [2016]; Shioda et al. [2016]; Szabadfi et al. [2016]; Vaczy et al. [2016]). […] P ...

[1] = tested on: retina (BCCAO-induced retinopathy); assay: Retinal layer thickness / morphology after bilateral carotid artery occlusion (BCCAO), eye drops; type: in vivo, rat (male); conditions: for Retinoprotective efficacy of eye drops, overall / compared with untagged peptide: topical eye drops in SOCB
Protocol: (§1) Adult male rat litters were housed in the animal facility in individual cages in a 12 h light-dark cycle with food and water ad libitum. Animal housing, care and application of experimental procedures were in accordance with institutional guidelines under approved protocols (No: BA02/2000–26/2017, University of Pecs). Under isoflurane anesthesia, common carotid arteries were exposed on both sides through a midline incision and then ligated with a 3–0 filament. A group of animals (sham group) underwent all steps of the operating procedure except ligation of the carotid arteries. Immediately following the operation, the right eye of the animals was treated with derivatives of PACAP (PACAP-TAT /n = 17/ or VIP-TAT /n = 17/) eye drops (1 μg/drop). Dose and schedule of the eye drop treatments were based on our previous experiments (Werling et al. [2016]). In the experiment for histological analysis, the different derivatives were dissolved in benzalkonium solution for ophthalmic use (solutio ophthalmica cum benzalkonio (SOCB)). The left eye, serving as a control, was treated with vehicle containing neither PACAP-TAT nor VIP-TAT. Animals were treated for five consecutive days, twice a day with one drop of drug, under brief isoflurane anesthesia (max. 5 min).
(§2) Fourteen days after the operation, rats (n = 10 SHAM and n = 24 BCCAO) were killed with anesthetic and the eyes were processed for histology. The eyes were removed and the retinas were solved in phosphate buffered saline (PBS), fixed in 4% paraformaldehyde dissolved in 0.1 M phosphate buffer (PB) (Sigma, Budapest, Hungary) and embedded in Durcupan ACM resin (Sigma, Budapest, Hungary). Retinas were cut at 2 μm and stained with toluidine blue dye (Sigma, Hungary). Sections were mounted in DPX medium (Sigma, Hungary) and photographs were taken with a digital CCD camera using the Spot program. Central retinal areas within 1 mm from the optic nerve were used (n = 5 measurements from one tissue block). The following parameters were measured: (i) cross-section of the retina from the outer limiting membrane (OLM) to the inner limiting membrane (ILM), (ii) the width of individual retinal layers (outer nuclear layer [ONL], outer plexiform layer [OPL], inner nuclear layer [INL], inner plexiform layer [IPL]), (iii) the number of cells/100 μm section length in the GCL, and the (iv) number of cells/[…]. Results are presented as mean ± SEM. Statistical comparisons were made using the two-way ANOVA test followed by Tukey’s post hoc analysis.
(§3) Fig. 4 Quantification of retinal layers in SHAM+SOCB, in SHAM+PACAP-TAT, in BCCAO+SOCB, and in BCCAO+PACAP-TAT animals; the right eye was treated with PACAP-TAT eye drops, the left eye served as controls receiving only SOCB. Comparison of all retinal layers (a–e). […] Statistical significance (*p < 0.05 vs. SHAM+SOCB retinas, #p < 0.05 vs. BCCAO+SOCB retinas) was calculated by two-way ANOVA followed by Fischer’s post hoc test
as §3, with “6” for “4”, “SHAM+VIP-TAT,” for “SHAM+PACAP-TAT,”, “BCCAO+VIP-TAT” for “BCCAO+PACAP-TAT”, “VIP-TAT” for “PACAP-TAT”, “control” for “controls”

[2] = tested on: retina (BCCAO-induced retinopathy); assay: Number of cells in retinal nuclear layers and GCL after BCCAO, eye drops; type: in vivo, rat (male); conditions: eye drops 1 μg/drop, twice a day, five days, vs BCCAO-induced degenerated retinas, 14 days
Protocol: as §1, §2
(§4) Fig. 5 Quantification of the number of cells/100 μm GCL length (a), the number of cells/500 μm^2 ONL (b) and INL (c) areas in SHAM+SOCB, in SHAM+PACAP-TAT, in BCCAO+SOCB, and in BCCAO+PACAP-TAT animals. Statistical significance (*p < 0.05 vs. SHAM+SOCB retinas, #p < 0.05 vs. BCCAO+SOCB retinas) was calculated by two-way ANOVA followed by Bonferroni’s post hoc test
as §4, with “Fig. 7” for “Fig. 5”, “in SHAM+VIP-TAT,” for “in SHAM+PACAP-TAT,”, “in BCCAO+VIP-TAT” for “in BCCAO+PACAP-TAT”

For CC[C@H](C)[C@H](NC(=O)[C@H](CO)NC(=O)[C@H](CC(N)=O)NC(=O)[C@H](CC(C)C)NC(=O)[C@H](Cc1ccc(O)cc1)NC(=O)[C@H](CCCCN)NC(=O)[C@H](CCCCN)NC(=O)[C@@H](NC(=O)[C@H](C)NC(=O)[C@H](CCSC)NC(=O)[C@H](CCC(N)=O)NC(=O)[C@H](CCCCN)NC(=O)[C@H](CCCNC(=N)N)NC(=O)[C@H](CC(C)C)NC(=O)[C@H](CCCNC(=N)N)NC(=O)[C@@H](NC(=O)[C@H](Cc1ccc(O)cc1)NC(=O)[C@H](CC(N)=O)NC(=O)[C@H](CC(=O)O)NC(=O)[C@@H](NC(=O)[C@H](Cc1ccccc1)NC(=O)[C@@H](NC(=O)[C@H](C)NC(=O)[C@H](CC(=O)O)NC(=O)[C@H](CO)NC(=O)[C@@H](N)Cc1c[nH]cn1)C(C)C)[C@@H](C)O)[C@@H](C)O)C(C)C)C(=O)N[C@@H](CC(C)C)C(=O)N[C@@H](CC(N)=O)C(=O)NCC(=O)N[C@@H](CCCNC(=N)N)C(=O)N[C@@H](CCCCN)C(=O)N[C@@H](CCCCN)C(=O)N[C@@H](CCCNC(=N)N)C(=O)N[C@@H](CCCNC(=N)N)C(=O)N[C@@H](CCC(N)=O)C(=O)N[C@@H](CCCNC(=N)N)C(=O)N[C@@H](CCCNC(=N)N)C(=O)N[C@@H](CCCNC(=N)N)C(=O)N1CCC[C@H]1C(=O)N[C@@H](CCC(N)=O)C(=O)O [VIP-TAT], the “Activity on / affinity for PAC1 receptor relative to VIP” value (PAC1 receptor) is listed as “higher activity on the activation of PACAP preferring PAC1receptor than VIP”, the “Activity on / affinity for PAC1 receptor relative to VIP” value (PAC1 receptor; listed as VIP bound to TAT peptide) is listed as “higher affinity for PAC1-R” and the “OPL preservation after BCCAO” value ([1]; BCCAO + eye drops, OPL almost disappeared in several BCCAO-induced degenerated retinas) is listed as “preserved”. For the same molecule, the “Retinal degeneration in light microphotographs after BCCAO” value ([1]; BCCAO + eye drops, toluidine blue sections, 14 days, severe degeneration in BCCAO+SOCB) was “only mild degeneration”, the “Retinoprotective efficacy of eye drops, overall / compared with untagged peptide” value ([1]; BCCAO) was “attenuate ischemic retinal degeneration via the PAC1 receptor” and the “Retinoprotective efficacy of eye drops, overall / compared with untagged peptide” value ([1]; BCCAO, listed as TAT-bound VIP) was “a similar degree of protection”. The “Retinoprotective efficacy of eye drops, overall / compared with untagged peptide” value ([1]; BCCAO, listed as VIP bound to TAT peptide) was “could effectively traverse the ocular barriers and exert a neuroprotective effect in the retina; also recorded: much stronger retinoprotective effects when bound to TAT”, the “Retinal layer thickness (OLM-ILM, ONL, OPL, INL, IPL) after BCCAO” value ([1]; BCCAO, eye drops 1 μg/drop, twice a day, five consecutive days, in SOCB, right eye, left eye SOCB control, 14 days, p < 0.05 vs. BCCAO+SOCB) was “significant amelioration in all retinal layers; also recorded: improved the structure of all the retinal layers” and the “Change of retinal thickness in sham animals” value ([1]; eye drops alone in sham animals, 1 μg/drop, twice a day, five consecutive days, in SOCB, histology 14 days after operation) was “did not cause any changes in the retinal thickness”. The “Number of cells in the GCL/100 μm after BCCAO” value [2] was “reduced cell loss in almost all nuclear layers, except in the ONL/500 μm2” and the “Number of cells in the INL/500 μm2 after BCCAO” value [2] was “reduced cell loss in almost all nuclear layers, except in the ONL/500 μm2”.
